Columns and labels:
Assay type in all cases: cell-based
M2 muscarinic receptor = target: T1, M2 muscarinic receptor (Homo sapiens, UniProt P08172); experiment: Functional mobilization of intracellular calcium (FLIPR), M2-CHO cells; conditions: for Emax: 100% efficacy is the maximum response obtained with the Carbachol control; for M2 Activity: CHO cells expressing M2, calcium mobilization
T1 construct: expressed in transfected cells; host or cells: CHO (M2-CHO)
T1 sequence (P08172 1-466): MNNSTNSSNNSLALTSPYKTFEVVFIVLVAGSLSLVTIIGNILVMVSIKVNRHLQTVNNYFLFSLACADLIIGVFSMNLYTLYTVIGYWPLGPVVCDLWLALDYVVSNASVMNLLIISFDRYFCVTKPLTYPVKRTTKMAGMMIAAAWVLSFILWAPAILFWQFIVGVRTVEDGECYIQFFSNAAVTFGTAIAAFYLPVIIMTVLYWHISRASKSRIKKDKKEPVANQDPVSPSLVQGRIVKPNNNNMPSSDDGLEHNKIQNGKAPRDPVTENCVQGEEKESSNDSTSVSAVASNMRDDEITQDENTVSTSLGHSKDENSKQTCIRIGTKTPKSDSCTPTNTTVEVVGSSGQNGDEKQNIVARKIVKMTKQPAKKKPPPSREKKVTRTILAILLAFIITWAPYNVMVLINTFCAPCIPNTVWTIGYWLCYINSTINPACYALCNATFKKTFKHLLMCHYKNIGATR
Protocol: (§1) Functional Mobilization of Intracellular Calcium to Determine Muscarinic Receptor Activity:
(§2) CHO cells expressing muscarinic receptors (M1 to M5) are grown as monolayers in tissue culture flasks at 37° C. in a humidified atmosphere containing 5% CO2 and passaged every 3-5 days. The growth media is Dulbecco's modified eagles medium (DMEM, Gibco Cat# 12430-054), containing 25 mM Hepes and supplemented with Fetal Bovine Serum (Hyclone, cat# SH30071.03), 0.1 mM of MEM non-essential amino acids (GIBCO, Cat# 11140-050), 1 mM MEM Sodium Pyruvate (GIBCO Cat# 11360-070) and 100 units/ml of Penicillin G and 100 μg/ml of Streptomycin (GIBCO Cat# 15140-122). The recombinant muscarinic receptor cell lines are grown under antibiotic pressure with media containing 25 μg/ml zeocin and 500 μg/ml G418 (M1-CHO), 4 μg/ml puromycin, 50 μg/ml zeocin and 2.5 μg/ml blasticidin (M2 and M4-CHO) or 50 μg/ml zeocin and 4 μg/ml puromycin (M3 and M5-CHO).
(§3) Cells are harvested at 80-90% confluence using Versene (GIBCO Cat# 15040-066), collected by centrifugation and seeded 18-24 hours prior to running the calcium assay at a density of 5,000-10,000 cells/well in […], clear-bottomed 384-well plates (BD Biocoat, poly-D-lysine, Cat#356663). The day of the experiment, the cells are washed with a plate washer (Bioteck Instruments, ELX 405) using Bath 1 buffer (140-mM NaCl, 4.5-mM KCl, 2-mM CaCl2, 1-mM MgCl2, 10-mM Hepes-Na, 10-mM Glucose, pH 7.4, with NaOH) containing 1 mM Probenecid. Next, the calcium dye Fluo-3 (25 μl/well of Fluo-3 AM at 4 μM, Molecular Probes F-1241, in Bath 1 buffer containing 1 mM Probenecid) is added to the 25 μl of Bath 1 remaining in each well after the plate wash and the dye is loaded at 37° C. in the tissue culture incubator for 60-90 min. The fluorescent dye is removed using the plate washer with Bath 1 containing 1 mM Probenecid, leaving 25 μl/well of this solution after the wash. Alternatively, cells can be loaded with the calcium indicator from Molecular Devices (Calcium 3 Assay Reagents, Cat # R7181) adding 5 μl of a 5× solution dye in Bath 1 containing 1 mM Probenecid (10 ml per dye flask cat# R7182 to generate a solution 20×) to 20 μl of the same buffer. After loading for 60 min, the experiment can be run without having to remove the dye.
(§4) Compounds are prepared at a 2× fold concentration in a 96-well plate (round bottom, Costar Corning cat# 3656), by reconstituting the pre-spotted compounds in bath 1 containing 1 mM probenecid. The final concentration DMSO is 0.5%, and the amount of DMSO is normalized across the assay plate. To determine an agonist action of the compounds on muscarinic receptors, the reconstituted compounds are added (25 μl compound/well) to the cell assay plate (containing 25 μl/well) using the multi-channel robotic system of the FLIPR 3 Instrument (Molecular Devices, Sunnyvale, Calif.). To determine a functional inhibitory action of the compounds on muscarinic receptors, the reconstituted compounds are added (25 μl compound/well) to the assay plate and pre-incubated for 15 min prior to adding 25 μl of Carbachol at 3× the EC80 for each muscarinic subtype. Alternatively, the compounds can be co-applied simultaneously with the agonist. In both assay modes, the fluorescence is recorded for 60 sec (excitation wavelength is […] and emission wavelength 540 nm) using the FLIPR 3 instrument.
(§5) The potency, efficacy and selectivity of the muscarinic compounds were evaluated by screening the compound activity across the whole family (M1 to M5 cells). Compounds were also screened for activity on other proteins such as other GPCRs and ion channels to determine selectivity on M4 receptors.
(§6) Examples of activities and efficacies of the muscarinic compounds of formulae (I, Ia, Ib, Ic, and Id) on modulating M1 and M4 receptors are shown below in Table 3. […]

M4 muscarinic receptor = target: T2, M4 muscarinic receptor (Homo sapiens, UniProt P08173); experiment: Functional mobilization of intracellular calcium (FLIPR), M4-CHO cells; conditions: for Emax: 100% efficacy is the maximum response obtained with the Carbachol control; for M4 Activity: CHO cells expressing M4, calcium mobilization
T2 construct: expressed in transfected cells; host or cells: CHO (M4-CHO)
T2 sequence (P08173 1-479): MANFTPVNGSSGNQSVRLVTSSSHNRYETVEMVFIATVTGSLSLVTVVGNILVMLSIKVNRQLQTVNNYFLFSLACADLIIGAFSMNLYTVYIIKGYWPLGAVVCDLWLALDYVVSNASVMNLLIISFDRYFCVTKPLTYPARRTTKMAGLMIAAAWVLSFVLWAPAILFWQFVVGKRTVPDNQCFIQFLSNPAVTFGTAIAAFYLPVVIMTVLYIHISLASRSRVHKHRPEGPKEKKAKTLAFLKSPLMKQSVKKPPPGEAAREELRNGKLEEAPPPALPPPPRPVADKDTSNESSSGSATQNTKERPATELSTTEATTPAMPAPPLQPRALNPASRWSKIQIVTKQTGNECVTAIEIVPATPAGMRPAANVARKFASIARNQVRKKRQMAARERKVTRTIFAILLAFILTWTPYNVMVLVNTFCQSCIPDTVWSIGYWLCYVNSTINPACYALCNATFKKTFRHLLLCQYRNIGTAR
Protocol: as §1, §2, §3, §4, §5, §6

M3 muscarinic receptor = target: T3, M3 muscarinic receptor (Homo sapiens, UniProt P20309); experiment: Functional mobilization of intracellular calcium (FLIPR), M3-CHO cells; conditions: for Emax: 100% efficacy is the maximum response obtained with the Carbachol control; for M3 Activity: CHO cells expressing M3, calcium mobilization
T3 construct: expressed in transfected cells; host or cells: CHO (M3-CHO)
T3 sequence (P20309 whole entry): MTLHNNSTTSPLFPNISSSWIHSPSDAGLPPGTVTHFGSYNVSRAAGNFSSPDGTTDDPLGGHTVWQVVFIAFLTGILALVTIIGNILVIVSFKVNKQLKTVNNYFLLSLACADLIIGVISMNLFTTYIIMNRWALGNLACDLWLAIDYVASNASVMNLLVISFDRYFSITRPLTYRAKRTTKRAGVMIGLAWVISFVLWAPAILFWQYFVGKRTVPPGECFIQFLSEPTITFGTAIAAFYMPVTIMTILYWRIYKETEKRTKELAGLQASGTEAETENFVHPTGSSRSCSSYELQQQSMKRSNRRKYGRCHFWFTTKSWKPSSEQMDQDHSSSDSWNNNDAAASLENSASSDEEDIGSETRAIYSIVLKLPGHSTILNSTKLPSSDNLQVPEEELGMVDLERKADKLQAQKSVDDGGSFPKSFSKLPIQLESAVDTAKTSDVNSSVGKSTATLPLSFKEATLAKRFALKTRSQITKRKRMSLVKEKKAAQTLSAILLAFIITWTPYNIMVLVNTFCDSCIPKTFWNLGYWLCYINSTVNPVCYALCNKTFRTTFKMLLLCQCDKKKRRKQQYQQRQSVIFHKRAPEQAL
Protocol: as §1, §2, §3, §4, §5, §6

M1 muscarinic receptor = target: T4, M1 muscarinic receptor (Homo sapiens, UniProt P11229); experiment: Functional mobilization of intracellular calcium (FLIPR), M1-CHO cells; conditions: for Emax: 100% efficacy is the maximum response obtained with the Carbachol control; for M1 Activity: CHO cells expressing M1, calcium mobilization
T4 construct: expressed in transfected cells; host or cells: CHO (M1-CHO)
T4 sequence (P11229 1-460): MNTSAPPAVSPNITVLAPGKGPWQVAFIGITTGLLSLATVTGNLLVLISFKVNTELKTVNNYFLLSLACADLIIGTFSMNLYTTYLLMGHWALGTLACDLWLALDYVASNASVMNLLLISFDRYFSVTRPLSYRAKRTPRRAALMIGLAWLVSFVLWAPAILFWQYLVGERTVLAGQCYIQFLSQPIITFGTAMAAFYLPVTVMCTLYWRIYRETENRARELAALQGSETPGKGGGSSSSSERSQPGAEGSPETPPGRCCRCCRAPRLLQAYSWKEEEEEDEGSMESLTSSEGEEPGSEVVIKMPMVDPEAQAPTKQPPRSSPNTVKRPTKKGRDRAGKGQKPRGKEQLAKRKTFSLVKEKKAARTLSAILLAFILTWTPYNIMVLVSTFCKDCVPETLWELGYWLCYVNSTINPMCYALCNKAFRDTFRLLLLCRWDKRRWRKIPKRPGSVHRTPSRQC
Protocol: as §1, §2, §3, §4, §5, §6

SMILES	Emax (M2 muscarinic receptor) [%]	M2 Activity (M2 muscarinic receptor)	Emax (M4 muscarinic receptor) [%]	M4 Activity (M4 muscarinic receptor)	Emax (M3 muscarinic receptor) [%]	M3 Activity (M3 muscarinic receptor)	Emax (M1 muscarinic receptor) [%]	M1 Activity (M1 muscarinic receptor)
CN1C(=O)OC2(CCN(C3CCCCCC3)CC2)c2ccccc21 [Compound 65, 1′-cycloheptyl-1-methylspiro[benzo[d][1,3]oxazine-4,4′-piperidin]-2(1H)-one]	< 25	+ (activity was measured to be greater than 5.0 μM)	25 to 100	+++ (activity was measured to be less than 2.0 μM)	< 25	+ (activity was measured to be greater than 5.0 μM)	< 25	+ (activity was measured to be greater than 5.0 μM)
O=C1Nc2ccccc2C2(CCN(C3CC4CCC(C4)C3)CC2)O1 (centres unmarked) [Compound 67, 1′-(bicyclo[3.2.1]octan-3-yl)spiro[benzo[d][1,3]oxazine-4,4′-piperidin]-2(1H)-one]	25 to 100	+++ (activity was measured to be less than 2.0 μM)	25 to 100	+++ (activity was measured to be less than 2.0 μM)	25 to 100	+ (activity was measured to be greater than 5.0 μM)	25 to 100	+++ (activity was measured to be less than 2.0 μM)
O=C1Nc2ccccc2C2(CCN(C3CCN(c4cnccn4)CC3)CC2)O1 [Compound 74, 1′-(1-(pyrazin-2-yl)piperidin-4-yl)spiro[benzo[d][1,3]oxazine-4,4′piperidin]-2(1H)-one]	25 to 100	+++ (activity was measured to be less than 2.0 μM)	25 to 100	+++ (activity was measured to be less than 2.0 μM)	25 to 100	+ (activity was measured to be greater than 5.0 μM)	> 100	+++ (activity was measured to be less than 2.0 μM)
CC(C)CCN1CCC2(CC1)OC(=O)Nc1ccccc12 [Compound 76, 1′-isopentylspiro[benzo[d][1,3]oxazine-4,4′-piperidin]-2(1H)-one]	25 to 100	+ (activity was measured to be greater than 5.0 μM)	25 to 100	+++ (activity was measured to be less than 2.0 μM)	< 25	+ (activity was measured to be greater than 5.0 μM)	25 to 100	+++ (activity was measured to be less than 2.0 μM)

From patent US7696201B2, “Modulators of muscarinic receptors” (Vertex Pharmaceuticals Incorporated, priority 2006, dated 2010)
